“Also recorded” adds a separate entry of the source. Where two headings read alike, the source gives them in different places.
Legend:
[1] = molecular target: T1, jack bean urease (Canavalia ensiformis, UniProt P07374); assay: biochemical
T1 construct: purchased Sigma
Experimental: To evaluate the urease enzyme activity, assay described by Weatherburn 1967 was performed. In 96-well plate, 10 μl of enzyme (jack bean urease, 5 U/ml), 40 μl buffer (100 mM urea, 0.01 M K2HPO4, 1 mM EDTA, and 0.01 M […], pH 8.2), and 20 μl of test drug were loaded. Following 15 min incubation at 37°C, 40 μl of alkali reagent (0.5%, w/v NaOH and 0.1% active chloride NaOCl) and 40 μl of phenol reagents (1%, w/v phenol and 0.005%, w/v sodium nitroprusside) were added.

[2] = molecular target: T2, urease (Canavalia ensiformis, UniProt P07374); assay: Urease enzyme kinetics and inhibition mechanism (Lineweaver-Burk, Dixon, enzyme activity vs enzyme concentration plots); format: biochemical, jack bean; details: for Mode of urease inhibition: Lineweaver-Burk plot; for Reversible or irreversible urease inhibition: enzyme activity vs enzyme concentration 0.44-14 μg/ml; for ESI dissociation constant (Ki'), urease: secondary replot of Lineweaver-Burk intercept, substrate urea
T2 construct: purchased Sigma
T2 sequence (P07374 whole entry, looked up): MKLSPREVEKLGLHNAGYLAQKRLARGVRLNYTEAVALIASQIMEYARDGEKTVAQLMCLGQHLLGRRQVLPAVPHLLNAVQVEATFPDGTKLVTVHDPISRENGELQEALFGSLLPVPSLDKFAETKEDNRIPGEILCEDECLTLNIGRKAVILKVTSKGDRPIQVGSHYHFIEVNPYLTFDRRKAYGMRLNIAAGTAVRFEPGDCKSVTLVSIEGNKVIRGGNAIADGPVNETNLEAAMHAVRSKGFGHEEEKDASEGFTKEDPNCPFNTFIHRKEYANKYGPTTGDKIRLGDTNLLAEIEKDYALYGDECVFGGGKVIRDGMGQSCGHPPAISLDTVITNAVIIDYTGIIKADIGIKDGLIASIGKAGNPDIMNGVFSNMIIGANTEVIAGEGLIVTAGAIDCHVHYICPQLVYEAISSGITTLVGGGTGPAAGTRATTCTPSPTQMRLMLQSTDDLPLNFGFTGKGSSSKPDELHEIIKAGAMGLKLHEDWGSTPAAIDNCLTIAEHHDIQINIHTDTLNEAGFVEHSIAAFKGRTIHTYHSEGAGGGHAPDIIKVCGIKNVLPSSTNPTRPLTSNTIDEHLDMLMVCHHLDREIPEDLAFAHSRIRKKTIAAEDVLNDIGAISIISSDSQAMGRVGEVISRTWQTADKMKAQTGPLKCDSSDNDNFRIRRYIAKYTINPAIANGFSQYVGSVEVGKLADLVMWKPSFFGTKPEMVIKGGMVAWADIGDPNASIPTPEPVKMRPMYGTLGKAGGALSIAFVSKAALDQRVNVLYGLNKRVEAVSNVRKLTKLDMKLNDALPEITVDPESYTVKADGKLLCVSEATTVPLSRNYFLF
Experimental: (§1) To this end, the Lineweaver-Burk plots of 1/absorbance versus 1/urea and 1/absorbance versus 1/L-DOPA were plotted. In all kinetic studies, drug concentrations (as indicated in Lineweaver-Burk plot) and respective substrates, urea in buffer (0.063 to 2 mM) for urease and L-DOPA (0.06 to 2 mM) for tyrosinase, were added and plates were incubated for 10 min at 37°C. Later, respective enzymes were added in plates and absorbance (wavelengths same as above) was monitored for 5 min with 1 min interval. The Lineweaver-Burk plot showing type of enzyme inhibition was plotted as inverse of velocities (1/V) versus inverse of substrate concentration 1/[S] Mm^−1. Later, inhibition constant (Ki) was evaluated by both the Dixon plot and from Lineweaver-Burk plot, by secondary replot of slope versus concentrations of inhibitor.
(§2) To this end, a plot among remaining enzyme activity versus various concentrations of respective enzymes in the presence of drug concentrations (as indicated in graph) was devised as determinant of reversible or irreversible behaviour of enzyme inhibition.

[3] = molecular target: T3, mushroom tyrosinase (Agaricus bisporus, UniProt C7FF04); assay: Tyrosinase enzyme kinetics and inhibition mechanism (Lineweaver-Burk, Dixon, diphenolase activity plots); format: biochemical; details: for Mode of tyrosinase inhibition: Lineweaver-Burk plot, oxidation of L-DOPA; for Reversible or irreversible tyrosinase inhibition: diphenolase activity, enzyme activity vs enzyme concentration 0.44-14 μg/ml; for ESI dissociation constant (Ki'), tyrosinase: secondary replot of Lineweaver-Burk intercept; for ESI dissociation constant (Ki'), tyrosinase / Ki: substrate L-DOPA; for Ki: secondary replot of Lineweaver-Burk slope, read-out: EI dissociation constant (Ki), tyrosinase
T3 construct: purchased Sigma
T3 sequence (C7FF04 1-392 limits assumed): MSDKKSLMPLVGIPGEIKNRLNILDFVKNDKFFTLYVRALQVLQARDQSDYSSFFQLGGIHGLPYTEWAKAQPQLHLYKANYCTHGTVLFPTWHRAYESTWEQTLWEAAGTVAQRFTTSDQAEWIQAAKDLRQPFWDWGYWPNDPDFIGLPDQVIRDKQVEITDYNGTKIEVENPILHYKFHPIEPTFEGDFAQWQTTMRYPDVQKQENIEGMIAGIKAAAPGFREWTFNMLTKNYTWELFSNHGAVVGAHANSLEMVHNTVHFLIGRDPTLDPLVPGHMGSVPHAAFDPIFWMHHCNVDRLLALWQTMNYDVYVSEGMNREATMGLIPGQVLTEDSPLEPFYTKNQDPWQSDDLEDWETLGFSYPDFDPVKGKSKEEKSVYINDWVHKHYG
Experimental: as §1, §2

T1 sequence (P07374 whole entry, looked up): as the sequence (P07374 whole entry, looked up) above

SMILES: N[C@@H](C(=O)N[C@@H]1C(=O)N2C(C(=O)O)=C(Cl)CS[C@H]12)c1ccccc1 [Cefaclor]
- IC50 [1]: 170 ± 16 µM

SMILES: CC1=C(C(=O)O)N2C(=O)[C@@H](NC(=O)[C@H](N)c3ccc(O)cc3)[C@H]2SC1 [Cefadroxil]
- IC50 [1]: 220 ± 6 µM

SMILES: CO/N=C(\C(=O)N[C@@H]1C(=O)N2C(C(=O)[O-])=C(C[N+]3(C)CCCC3)CS[C@H]12)c1csc(N)n1 [Cefepime]
- IC50 [1]: 190 ± 37 µM

SMILES: C=CC1=C(C(=O)O)N2C(=O)[C@@H](NC(=O)/C(=N\OCC(=O)O)c3csc(N)n3)[C@H]2SC1 [Cefixime trihydrate]
- IC50 [1]: 180 ± 14 µM

SMILES: CO/N=C(\C(=O)N[C@@H]1C(=O)N2C(C(=O)O)=C(COC(C)=O)CS[C@H]12)c1csc(N)n1 [Cefotaxime sodium]
- IC50 [1]: 60 ± 4 µM
- Ki [2]: 120 µM
- Mode of urease inhibition [2]: competitive
- Reversible or irreversible urease inhibition [2]: irreversibly
- ESI dissociation constant (Ki'), urease [2]: 30000 µM
- Mode of tyrosinase inhibition [3]: mixed-type, preferentially competitive
- Reversible or irreversible tyrosinase inhibition [3]: irreversibly; also recorded: irreversible
- ESI dissociation constant (Ki'), tyrosinase [3]: 800 µM
- Ki [3]: 70 µM

SMILES: COCC1=C(C(=O)OC(C)OC(=O)OC(C)C)N2C(=O)[C@@H](NC(=O)/C(=N\OC)c3csc(N)n3)[C@H]2SC1 (stereo partly shown) [Cefpodoxime proxetil]
- IC50 [1]: 100 ± 14 µM

SMILES: CC(C)(O/N=C(\C(=O)N[C@@H]1C(=O)N2C(C(=O)[O-])=C(C[n+]3ccccc3)CS[C@H]12)c1csc(N)n1)C(=O)O [Ceftazidime]
- IC50 [1]: 91 ± 7 µM

SMILES: CO/N=C(\C(=O)N[C@@H]1C(=O)N2C(C(=O)O)=C(CSc3nc(=O)c(=O)[nH]n3C)CS[C@H]12)c1csc(N)n1 [Ceftriaxone sodium]
- IC50 [1]: 80 ± 4 µM
- Ki [2]: 700 µM
- Mode of urease inhibition [2]: competitive
- Reversible or irreversible urease inhibition [2]: irreversibly
- ESI dissociation constant (Ki'), urease [2]: 6000 µM
- Mode of tyrosinase inhibition [3]: mixed-type, preferentially competitive
- Reversible or irreversible tyrosinase inhibition [3]: irreversibly; also recorded: irreversible
- ESI dissociation constant (Ki'), tyrosinase [3]: 600 µM
- Ki [3]: 100 µM

SMILES: CO/N=C(\C(=O)N[C@@H]1C(=O)N2C(C(=O)O)=C(COC(N)=O)CS[C@H]12)c1ccco1 [Cefuroxime]
- IC50 [1]: 180 ± 9 µM

SMILES: CC1=C(C(=O)O)N2C(=O)[C@@H](NC(=O)[C@H](N)c3ccccc3)[C@H]2SC1 [Cephalexin]
- IC50 [1]: 370 ± 46 µM

SMILES: CC1=C(C(=O)O)N2C(=O)[C@@H](NC(=O)[C@H](N)C3=CCC=CC3)[C@H]2SC1 [Cephradine]
- IC50 [1]: 120 ± 9 µM

SMILES: NC(N)=S [Thiourea]
- IC50 ([1]; jack bean urease 5 U/ml, 100 mM urea, pH 8.2, OD625 nm, read-out: Jack bean urease inhibition IC50 ± SEM): 19 ± 2 µM

Source: PMC9352478, “Cephalosporin as Potent Urease and Tyrosinase Inhibitor: Exploration through Enzyme Inhibition, Kinetic Mechanism, and Molecular Docking Studies” (BioMed Research International, 2022)
